Measured values reported in patent US4684664A, “Derivatives of β-(4-isocyano-1,2,3,4-diepoxycyclopentyl) acrylic acid” (Kureha Kagaku Kogyo Kabushiki Kaisha, priority 1984, dated 1987).
In brackets after ≈: the same amount, converted by molar mass.

What was measured:
Type in all cases: cell-based
[1] = test system: Staphylococcus aureus FDA 209PJc-1; experiment: Antibacterial activity, agar-dilution MIC, organism No. 1; settings: Staphylococcus aureus, FDA209PJC1; Organism No. 1, bouillon-agar; read-out: Minimum Inhibitory Concentration
Procedure, shortened: (§1)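 An agar-dilution procedure on bouillon-agar medium was applied, and each MIC was recorded as micrograms of specimen per ml of medium.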

[2] = test system: Staphylococcus aureus Terajima; experiment: Antibacterial activity, agar-dilution MIC, organism No. 2; settings: Staphylococcus aureus; Organism No. 2, bouillon-agar; read-out: Minimum Inhibitory Concentration
Procedure, shortened: as §1

[3] = test system: Staphylococcus aureus MS 353; experiment: Antibacterial activity, agar-dilution MIC, organism No. 3; settings: Staphylococcus aureus, MS353; Organism No. 3, bouillon-agar; read-out: Minimum Inhibitory Concentration
Procedure, shortened: as §1

[4] = test system: Streptococcus pyogenes Cook; experiment: Antibacterial activity, agar-dilution MIC, organism No. 4; settings: Streptococcus pyogenes; Organism No. 4, bouillon-agar; read-out: Minimum Inhibitory Concentration
Procedure, shortened: as §1

[5] = test system: Escherichia coli NIHJ-JC-2; experiment: Antibacterial activity, agar-dilution MIC, organism No. 5; settings: Escherichia coli, NIHJJC2; Organism No. 5, bouillon-agar; read-out: Minimum Inhibitory Concentration
Procedure, shortened: as §1

[6] = test system: Escherichia coli K12 C600 IAM 1264; experiment: Antibacterial activity, agar-dilution MIC, organism No. 6; settings: Escherichia coli, IAM1264; Organism No. 6, bouillon-agar; read-out: Minimum Inhibitory Concentration
Procedure, shortened: as §1

[7] = test system: Klebsiella pneumoniae PCI-602; experiment: Antibacterial activity, agar-dilution MIC, organism No. 7; settings: Klebsiella pneumoniae, PCI602; Organism No. 7, bouillon-agar; read-out: Minimum Inhibitory Concentration
Procedure, shortened: as §1

[8] = test system: Salmonella typhimurium IID 971; experiment: Antibacterial activity, agar-dilution MIC, organism No. 8; settings: Salmonella enterica; Organism No. 8, bouillon-agar; read-out: Minimum Inhibitory Concentration
Procedure, shortened: as §1

Salmonella typhi 901 = experiment: Antibacterial activity, agar-dilution MIC, organism No. 9; settings: Salmonella enterica, TYPHI, read-out: Minimum Inhibitory Concentration
Procedure, shortened: as §1

[9] = test system: Salmonella paratyphi-A 1015; experiment: Antibacterial activity, agar-dilution MIC, organism No. 10; settings: Salmonella enterica, PARATYPHI, read-out: Minimum Inhibitory Concentration
Procedure, shortened: as §1

[10] = test system: Salmonella shottmuelleri 8006; experiment: Antibacterial activity, agar-dilution MIC, organism No. 11; settings: Salmonella, 8006; Organism No. 11, bouillon-agar; read-out: Minimum Inhibitory Concentration
Procedure, shortened: as §1

[11] = test system: Salmonella enteritidis G 14; experiment: Antibacterial activity, agar-dilution MIC, organism No. 12; settings: Salmonella enterica, ENTERITIDIS; Organism No. 12, bouillon-agar; read-out: Minimum Inhibitory Concentration
Procedure, shortened: as §1

[12] = test system: Serratia marcescens IAM 1184; experiment: Antibacterial activity, agar-dilution MIC, organism No. 13; settings: Serratia marcescens, IAM1184; Organism No. 13, bouillon-agar; read-out: Minimum Inhibitory Concentration
Procedure, shortened: as §1

[13] = test system: Bacillus subtilis ATCC 6633; experiment: Antibacterial activity, agar-dilution MIC, organism No. 14; settings: Bacillus subtilis, ATCC6633; Organism No. 14, bouillon-agar; read-out: Minimum Inhibitory Concentration
Procedure, shortened: as §1

[14] = test system: Pseudomonas aeruginosa IFO 3445; experiment: Antibacterial activity, agar-dilution MIC, organism No. 15; settings: Pseudomonas aeruginosa, IFO3445; Organism No. 15, bouillon-agar; read-out: Minimum Inhibitory Concentration
Procedure, shortened: as §1

[15] = test system: Pseudomonas aeruginosa NCTC 10490; experiment: Antibacterial activity, agar-dilution MIC, organism No. 16; settings: Pseudomonas aeruginosa, NCTC10490; Organism No. 16, bouillon-agar; read-out: Minimum Inhibitory Concentration
Procedure, shortened: as §1

[16] = test system: Pseudomonas aeruginosa PAO 1; experiment: Antibacterial activity, agar-dilution MIC, organism No. 17; settings: Pseudomonas aeruginosa, PAO1; Organism No. 17, bouillon-agar; read-out: Minimum Inhibitory Concentration
Procedure, shortened: as §1

[17] = test system: Proteus morganii IFO 3848; experiment: Antibacterial activity, agar-dilution MIC, organism No. 18; settings: Morganella morganii, IFO3848; Organism No. 18, bouillon-agar; read-out: Minimum Inhibitory Concentration
Procedure, shortened: as §1

[18] = test system: Proteus mirabilis IFO 3849; experiment: Antibacterial activity, agar-dilution MIC, organism No. 19; settings: Proteus mirabilis, IFO3849; Organism No. 19, bouillon-agar; read-out: Minimum Inhibitory Concentration
Procedure, shortened: as §1

Proteus vulgaris OX-19 = experiment: Antibacterial activity, agar-dilution MIC, organism No. 20; settings: Proteus vulgaris, OX19; Organism No. 20, bouillon-agar; read-out: Minimum Inhibitory Concentration
Procedure, shortened: as §1

Proteus vulgaris HX-19 = experiment: Antibacterial activity, agar-dilution MIC, organism No. 21; settings: Proteus vulgaris, HX19; Organism No. 21, bouillon-agar; read-out: Minimum Inhibitory Concentration
Procedure, shortened: as §1

[19] = test system: Proteus rettgeri IFO 3850; experiment: Antibacterial activity, agar-dilution MIC, organism No. 22; settings: Providencia rettgeri, IFO3850; Organism No. 22, bouillon-agar; read-out: Minimum Inhibitory Concentration
Procedure, shortened: as §1

[20] = test system: Enterobacter aerogenes ATCC 13048; experiment: Antibacterial activity, agar-dilution MIC, organism No. 23; settings: Klebsiella aerogenes, ATCC13048; Organism No. 23, bouillon-agar; read-out: Minimum Inhibitory Concentration
Procedure, shortened: as §1

Enterobacter cloacae 963 = experiment: Antibacterial activity, agar-dilution MIC, organism No. 24; settings: Enterobacter cloacae, 963; Organism No. 24, bouillon-agar; read-out: Minimum Inhibitory Concentration
Procedure, shortened: as §1

[21] = test system: Micrococcus luteus ATCC 9341; experiment: Antibacterial activity, agar-dilution MIC, organism No. 25; settings: Micrococcus luteus, ATCC9341; Organism No. 25, bouillon-agar; read-out: Minimum Inhibitory Concentration
Procedure, shortened: as §1

[22] = test system: Streptococcus pyogenes IFO 3340; experiment: Antibacterial activity, agar-dilution MIC, organism No. 26; settings: Streptococcus pyogenes, IFO3340; Organism No. 26, bouillon-agar; read-out: Minimum Inhibitory Concentration
Procedure, shortened: as §1

[23] = test system: Streptococcus faecium IFO 3826; experiment: Antibacterial activity, agar-dilution MIC, organism No. 27; settings: Enterococcus faecium, IFO3826; Organism No. 27, bouillon-agar; read-out: Minimum Inhibitory Concentration
Procedure, shortened: as §1

[24] = test system: Mycoplasma pneumoniae IID817; experiment: Antimycoplasmal activity, MIC by phenol red colour change, organism No. 28; settings: Mycoplasma, IID817; Organism No. 28, PPLO broth + 1% glucose, 37° C.; read-out: Minimum Inhibitory Concentration (MIC)
Description: Mycoplasma pneumoniae IID817 was used as the test microorganism in a culture medium prepared by adding 1% of glucose to "PPLO broth (manufactured by Difco Co.) liquid culture medium" at 37° C. with phenol red as an indicator, thereby culturing the test microorganism.

[25] = test system: Candida albicans IAM 4905; experiment: Antifungal activity, agar-dilution MIC, organism No. 29; settings: Candida albicans, IAM4905; Organism No. 29, bouillon-agar; read-out: Minimum Inhibitory Concentration
Procedure, shortened: as §1

[26] = test system: Aspergillus niger IFO 6342; experiment: Antifungal activity, agar-dilution MIC, organism No. 30; settings: Aspergillus niger, IFO6342; Organism No. 30, bouillon-agar; read-out: Minimum Inhibitory Concentration
Procedure, shortened: as §1

| SMILES | MIC [1] [µg/mL] | MIC [2] [µg/mL] | MIC [3] [µg/mL] | MIC [4] [µg/mL] | MIC [5] [µg/mL] | MIC [6] [µg/mL] | MIC [7] [µg/mL] | MIC [8] [µg/mL] | MIC (Salmonella typhi 901) [µg/mL] | MIC [9] [µg/mL] | MIC [10] [µg/mL] | MIC [11] [µg/mL] | MIC [12] [µg/mL] | MIC [13] [µg/mL] | MIC [14] [µg/mL] | MIC [15] [µg/mL] | MIC [16] [µg/mL] | MIC [17] [µg/mL] | MIC [18] [µg/mL] | MIC (Proteus vulgaris OX-19) [µg/mL] | further results |
| --- | --- | --- | --- | --- | --- | --- | --- | --- | --- | --- | --- | --- | --- | --- | --- | --- | --- | --- | --- | --- | --- |
| [C-]#[N+]C12CC3(/C=C/C(=O)OCc4ccccc4[N+](=O)[O-])OC3C1O2 (stereo not drawn) [compound 13] | 0.39 (≈ 1.19 µM) | 0.39 (≈ 1.19 µM) | 0.39 (≈ 1.19 µM) | 100 (≈ 305 µM) | 100 (≈ 305 µM) | 100 (≈ 305 µM) | 25 (≈ 76.2 µM) | 200 (≈ 609 µM) | 50 (≈ 152 µM) | 25 (≈ 76.2 µM) | 12.5 (≈ 38.1 µM) | 200 (≈ 609 µM) | 100 (≈ 305 µM) | 25 (≈ 76.2 µM) | > 200 | > 200 | > 200 | 12.5 (≈ 38.1 µM) | > 200 | 25 (≈ 76.2 µM) | MIC (Proteus vulgaris HX-19): 0.1 µg/mL (≈ 0.305 µM); MIC [19]: 100 µg/mL (≈ 305 µM); MIC [20]: > 200 µg/mL; MIC (Enterobacter cloacae 963): > 200 µg/mL; MIC [21]: < 0.1 µg/mL; MIC [22]: 100 µg/mL (≈ 305 µM); MIC [23]: 0.78 µg/mL (≈ 2.38 µM); MIC [24]: 0.2 µg/mL; MIC [25]: 0.8 µg/mL (≈ 2.44 µM); MIC [26]: 6.25 µg/mL (≈ 19 µM) |
| [C-]#[N+]C12CC3(/C=C/C(=O)OCc4cccc([N+](=O)[O-])c4)OC3C1O2 (stereo not drawn) [compound 14] | 200 (≈ 609 µM) | 200 (≈ 609 µM) | 200 (≈ 609 µM) | > 200 | > 200 | > 200 | 200 (≈ 609 µM) | > 200 | 200 (≈ 609 µM) | 200 (≈ 609 µM) | 200 (≈ 609 µM) | > 200 | > 200 | 200 (≈ 609 µM) | > 200 | > 200 | > 200 | 200 (≈ 609 µM) | > 200 | 200 (≈ 609 µM) | MIC (Proteus vulgaris HX-19): 12.5 µg/mL (≈ 38.1 µM); MIC [19]: > 200 µg/mL; MIC [20]: > 200 µg/mL; MIC (Enterobacter cloacae 963): > 200 µg/mL; MIC [21]: 0.78 µg/mL (≈ 2.38 µM); MIC [22]: > 200 µg/mL; MIC [23]: 200 µg/mL (≈ 609 µM); MIC [24]: 3.13 µg/mL; MIC [25]: 12.5 µg/mL (≈ 38.1 µM); MIC [26]: 25 µg/mL (≈ 76.2 µM) |
| [C-]#[N+]C12CC3(/C=C/C(=O)OCc4ccc([N+](=O)[O-])cc4)OC3C1O2 (stereo not drawn) [compound 15] | 25 (≈ 76.2 µM) | 50 (≈ 152 µM) | 25 (≈ 76.2 µM) | 50 (≈ 152 µM) | 50 (≈ 152 µM) | 50 (≈ 152 µM) | 12.5 (≈ 38.1 µM) | 50 (≈ 152 µM) | 25 (≈ 76.2 µM) | 25 (≈ 76.2 µM) | 12.5 (≈ 38.1 µM) | 50 (≈ 152 µM) | > 100 | 50 (≈ 152 µM) | > 100 | > 100 | > 100 | 25 (≈ 76.2 µM) | 100 (≈ 305 µM) | 6.25 (≈ 19 µM) | MIC (Proteus vulgaris HX-19): < 0.1 µg/mL; MIC [19]: > 100 µg/mL; MIC [20]: > 100 µg/mL; MIC (Enterobacter cloacae 963): > 100 µg/mL; MIC [21]: < 0.1 µg/mL; MIC [22]: 50 µg/mL (≈ 152 µM); MIC [23]: 25 µg/mL (≈ 76.2 µM); MIC [24]: 12 µg/mL; MIC [25]: 6.25 µg/mL (≈ 19 µM); MIC [26]: 6.25 µg/mL (≈ 19 µM) |
| [C-]#[N+]C12CC3(/C=C/C(=O)OCC(C)C)OC3C1O2 (stereo not drawn) [compound 18] | 0.39 (≈ 1.56 µM) | 12.5 (≈ 50.1 µM) | 3.13 (≈ 12.6 µM) | 0.78 (≈ 3.13 µM) | 12.5 (≈ 50.1 µM) | 12.5 (≈ 50.1 µM) | 1.56 (≈ 6.26 µM) | 12.5 (≈ 50.1 µM) | 3.13 (≈ 12.6 µM) | 1.56 (≈ 6.26 µM) | 0.78 (≈ 3.13 µM) | 6.25 (≈ 25.1 µM) | 200 (≈ 802 µM) | 0.78 (≈ 3.13 µM) | > 200 | 200 (≈ 802 µM) | > 200 | 3.13 (≈ 12.6 µM) | 6.25 (≈ 25.1 µM) | 0.2 (≈ 0.802 µM) | MIC (Proteus vulgaris HX-19): 0.1 µg/mL (≈ 0.401 µM); MIC [19]: 100 µg/mL (≈ 401 µM); MIC [20]: > 200 µg/mL; MIC (Enterobacter cloacae 963): 200 µg/mL (≈ 802 µM); MIC [21]: 1.56 µg/mL (≈ 6.26 µM); MIC [22]: 1.56 µg/mL (≈ 6.26 µM); MIC [23]: 12.5 µg/mL (≈ 50.1 µM); MIC [24]: < 0.2 µg/mL; MIC [25]: 0.2 µg/mL (≈ 0.802 µM); MIC [26]: 0.78 µg/mL (≈ 3.13 µM) |
